The source of these data is patent US11261190B2, “Dihydropyrimidine compounds and uses thereof in medicine” (SUNSHINE LAKE PHARMA CO., LTD., priority 2017, dated 2022).

A short description of data set [1]: Cytotoxicity in HepG2.2.15 cells (CellTiter Glo). The class given is cell-based. Conditions: human, highest concentration 150 μM. The essentials:
(§1)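 Serially diluted compound added to HepG2.2.15 cells (3000/well), top final concentration 150 μM; cultured 4 days at 37° C. Viability read by CellTiter Glo luminescence, cytotoxicity % relative to DMSO control wells, CC50 from four-parameter nonlinear regression.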

Data set [2] relates to HBV. Nature of the data set: Anti HBV activity in vitro, viral DNA from HepG2.2.15 cells quantified by qPCR. The class given is cell-based. Conditions: qPCR of viral DNA in supernatant, read-out: EC50 against HBV replication. The essentials: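 HepG2.2.15 cells, grown 3 days to confluence, treated with 8-point 4-fold dilutions (top final 4 μM, 0.5% DMSO). Secreted HBV DNA in supernatant quantified by SYBR qPCR against plasmid standard curve; EC50 from four-parameter nonlinear regression of concentration vs viral copy number.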

A further data set is described as follows: PK test on SD rats. Format: in vivo. The note with it: for AUC(0-inf) / AUC(0-t) / Tmax: male, rat, plasma. As for the experimental part:
The PK test method of the compound in vivo of SD rats (purchased from Hunan slack Jing Da laboratory animal Co., Ltd, weight: […] male, ages of 2-3 months, 3 per oral group, 3 per intravenous injection group):
The Rats were administered intragastrically with the test compound at doses of 2.5 mg/kg or 5 mg/kg or administered intravenously with the test compound at doses of 1 mg/kg.
Blood samples were taken at 0.083, 0.25, 0.5, 1, 2, 5, 7 and 24 hours from vein after the administration, and collected in anticoagulation tube with EDTA-K2. The test compounds were extracted from plasma samples by liquid-liquid extraction. Then quantitative analysis was performed on a triple-quadrupole tandem mass spectrometer using multiple reaction monitoring (MRM). Pharmacokinetic parameters were calculated using a noncompartmental method by WinNonLin 6.3 software.

Data set [3] has as its system HBV. The note with it: Science, 2003, 299, 893-896; cited from earlier work.
Another data set has as its system HepG2.2.15 cells. Nature of the data set: Cytotoxicity in HepG2.2.15 cells (CellTiter Glo). Conditions: 4 days, highest concentration 150 μM. Format: cell-based. The essentials: as §1

Read-outs that look alike come from different tables or passages of the source.

As to `COC(=O)C1=C(CN2CCN3C(=O)N(c4ccc(CC(C)(C)C(=O)O)cc4)C[C@@H]3C2)NC(c2nccs2)=N[C@H]1c1ccc(F)cc1Cl` [Example 17, 3-(4-((S)-7-(((R)-6-(2-chloro-4-fluorophenyl)-5-(methoxycarbonyl)-2-(thiazol-2-yl)-3,6-dihydropyrimidin-4-yl)methyl)-3-oxohexahydroimidazo[1,5-a]pyrazin-2(3H)-yl)phenyl)-2,2-dimethylpropionic Acid], in data set [1], the CC50 at 4 days was greater than 150 µM. Further, in the data set with HBV [2] (Hepatitis B virus), the EC50 worked out at 0.004 µM. Also, in “PK test on SD rats” (iv, 1 mg/kg), the AUC(0-inf) was 0.979 µg·h/mL, the exposure AUC(0-t) was 0.977 µg·h/mL and the Tmax came out at 4.98 min. For the same molecule, in “PK test on SD rats” (po, 5 mg/kg), the AUC(0-inf) was 5.58 µg·h/mL, the AUC(0-t) turned out to be 4.71 µg·h/mL, the Tmax was 60 min and the F is 114.1%.
On to `Nc1ccn([C@@H]2CS[C@H](CO)O2)c(=O)n1` [lamivudine], for which, in the data set with HBV [3], the 50% inhibitory concentration (IC50) is 0.3 µM.
`CCOC(=O)C1=C(CN2CCN3C(=O)N(c4nc(CCC(=O)O)cs4)C[C@@H]3C2)NC(c2nccs2)=N[C@H]1c1ccc(F)cc1Br` [Example 30] registered a CC50 in the data set on HepG2.2.15 cells of 133 µM. For the same molecule, in the data set on HBV [2], the EC50 was 0.012 µM.
`COC(=O)C1=C(CN2CCN3C(=O)N(c4ccc(C(C)CC(=O)O)cc4)C[C@@H]3C2)NC(c2nccs2)=N[C@H]1c1ccc(F)cc1Cl` (stereo partly drawn) [Example 19, 3-(4-((S)-7-(((R)-6-(2-chloro-4-fluorophenyl)-5-(methoxycarbonyl)-2-(thiazol-2-yl)-3,6-dihydropyrimidin-4-yl)methyl)-3-oxohexahydroimidazo[1,5-a]pyrazin-2(3H)-yl)phenyl) butanoic Acid] came in with a CC50 at 4 days in data set [1] greater than 150 µM. Further, the EC50 with HBV [2] (Hepatitis B virus) was 0.003 µM. In the data set “PK test on SD rats” (iv, 1 mg/kg), the AUC(0-inf) came to 5.52 µg·h/mL, the AUC(0-t) amounted to 5.52 µg·h/mL and the Tmax worked out at 4.98 min. In addition, in the data set “PK test on SD rats” (po, 5 mg/kg), the AUC(0-inf) amounted to 20.3 µg·h/mL, the AUC(0-t) is 20.3 µg·h/mL, the Tmax came to 30 min and the F amounted to 73.4%.
`COC(=O)C1=C(CN2CCN3C(=O)N(c4ccc(CCC(=O)O)cc4)C[C@@H]3C2)NC(c2nccs2)=N[C@H]1c1ccc(F)cc1Cl` [Example 13, 3-(4-((S)-7-(((R)-6-(2-chloro-4-fluorophenyl)-5-(methoxycarbonyl)-2-(thiazol-2-yl)-3,6-dihydropyrimidin-4-yl)methyl)-3-oxohexahydroimidazo[1,5-a]pyrazin-2(3H)-yl)phenyl)propionic Acid] gave a CC50 at 4 days in data set [1] greater than 150 µM. In addition, the EC50 in the data set with HBV [2] (Hepatitis B virus) was determined as 0.004 µM. In the data set “PK test on SD rats” (iv, 1 mg/kg), the AUC(0-inf) worked out at 1.32 µg·h/mL, the AUC(0-t) turned out to be 1.32 µg·h/mL and the Tmax came to 4.98 min. Besides, in “PK test on SD rats” (po, 5 mg/kg), the total exposure AUC(0-inf) was determined as 3.08 µg·h/mL, the AUC(0-t) stood at 3.05 µg·h/mL, the Tmax is 30 min and the F is given as 31.2%.
